Source: US20240197761A1, “FUCOSYLATION AND IMMUNE MODULATION IN CANCER” (H. LEE MOFFITT CANCER CENTER AND RESEARCH INSTITUTE, INC., priority 2021, published 2024)

Tested on: HLA-DRB1 in WM793 cells
Assay: Immunofluorescent subcellular localization of HLA-DRB1
Format: cell-based, human
Details: vs. vehicle (DMSO)
Excerpt: FIGS. 18A-18F show N-linked fucosylation of HLA-DRB1 at N48 regulates its cell surface localization and is required for tumor suppression and increased TIL abundance. (a) (upper) Amino acid sequence alignments showing conservation of predicted N- and O-linked fucosylation sites in human HLA-DRB1 (N48 and T129) and mouse H2EB1 (N46 and T147). Structural modeling of the HLA-DRB1:HLA-DM (lower left) and CD4:HLA-DRB1:TCR (lower right) complexes. Potential glycosylation sites, N48 and T129, of HLA-DR1 beta chain are shown as sticks. CD4 (cyan), HLA-DRB1 (yellow), antigen peptide (magenta), and TCR (green)(lower right). (b) HLA-DRB1 peptide fragment identified by nano-LC/MS to be fucosylated on N48, with predicted HexNAc(4)Hex(3)Fuc(1) glycan structure shown above. (c) Lectin pull down (LPD) and IB analyses of EV and V5-tagged wild-type HLA-DRB1 (WT)-, HLA-DRB1 N48G (N48G)-, and HLA-DRB1 T129A (T129A)-expressing WM793 cells. (d) DMSO- or fucosyltransferase inhibitor (FUTi)-treated WM793 cells immunofluorescently stained for endogenous HLA-DRB1, KDEL (ER marker), and DAPI (20× magnification). […]

CC(=O)OC1O[C@@H](C)[C@@H](OC(C)=O)[C@@H](OC(C)=O)[C@@H]1F (stereo partly shown) [FUTi, 2F-peracteyl-fucose, reference compound]
subcellular localization of HLA-DRB1: dimmer, more central, endoplasmic reticulum-co-localization of HLA-DRB1
